Common to all, as to assay type: cell-based, human
One experiment relates to A549 lung cancer cell. The experiment can be described thus: MTT anti-proliferative assay, A549. As to conditions: MTT, 48 h. The essentials:
(§1)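 Cells grown in DMEM supplemented with FBS were seeded in 96-well format and treated with the analogs. Cytotoxicity was scored by MTT as reduction of net growth.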

The subject of a further experiment is HepG2 hepatoma cell. The experiment is described as follows: MTT anti-proliferative assay, HepG2. Particulars: MTT, 48 h; read-out: IC50 HepG-2. In a few lines: as §1
The test system of experiment [1] is MGC-803 late stage differentiation gastric cancer cell. The experiment is described as follows: MTT anti-proliferative assay, MGC-803. Particulars: MTT, 48 h. The essentials: as §1
The subject of another experiment is AGS gastric cancer cell. The experiment can be described thus: MTT anti-proliferative assay, AGS. As to conditions: for IC50: MTT, 48 h. In a few lines:
as §1

The subject of experiment [2] is diffuse large B-cell lymphoma SU-DHL-10 cell. The experiment is described as follows: MTT anti-proliferative assay, SU-DHL-10. In a few lines:
as §1

Experiment [3] relates to HCT116 colectal cancer cell. The experiment can be described thus: MTT anti-proliferative assay, HCT116. Particulars: for IC50: MTT, 48 h, read-out: IC50 HCT-116. The essentials:
as §1

The test system of experiment [4] is Raji B lymphoblastoid cell. The experiment is described as follows: MTT anti-proliferative assay, Raji. In a few lines: as §1
The test system of the next experiment is MCF-7 breast cancer cell. The experiment can be described thus: MTT anti-proliferative assay, MCF-7. Particulars: MTT, 48 h. In a few lines:
as §1

Experiment [5] has as its system MCF-10A normal breast cell. The experiment can be described thus: MTT assay, MCF-10A normal cells. Particulars: 48 h. In a few lines: as §1
Experiment [6] concerns BEL-7402 liver cancer cell. The experiment can be described thus: MTT anti-proliferative assay, BEL-7402. Particulars: MTT, 48 h. The essentials: as §1
Experiment [7] deals with SGC-7901 early differentiation gastric cancer cell. The experiment is described as follows: MTT anti-proliferative assay, SGC-7901. As to conditions: MTT, 48 h. The essentials: as §1
For a further experiment, the system named is L-02 normal liver cell. The experiment can be described thus: MTT assay, L-02 normal cells. As to conditions: 48 h. In a few lines: as §1
For experiment [8], the system named is HeLa cervical cancer cell. The experiment can be described thus: MTT anti-proliferative assay, HeLa. Particulars: MTT, 48 h. In a few lines:
as §1

[9] abbreviates: MTT, 48 h, read-out: IC50 SU-DHL-10.

Where two headings read alike, the source gives them in different places.

Data on 11 compounds can be found in PMC11071649, “Synthesis and Selective Anticancer Activity Evaluation of 2-phenylacrylonitrile Derivatives as Tubulin Inhibitors” (Current Medicinal Chemistry, 2024).

Turning to `CC(C)c1ccc(/C=C(\C#N)c2ccc(C(F)(F)F)cc2)cc1` [Compound 1f2q], the IC50 with A549 lung cancer cell is more than 100 µM; with HepG2 hepatoma cell, more than 100 µM; in experiment [1], more than 100 µM; in the experiment with AGS gastric cancer cell, more than 100 µM; in [2] (setting [9]) it was 38.4 ± 3.6 µM; in experiment [3], more than 100 µM. Besides, the IC50 in experiment [4] (MTT, 48 h, read-out: IC50 Raji) was 34.9 ± 4.5 µM; with MCF-7 breast cancer cell, more than 100 µM; in [5], more than 100 µM; in [6] it was more than 100 µM; in experiment [7] it was more than 100 µM; with L-02 normal liver cell, more than 100 µM. This compound registered an IC50 in experiment [8] of more than 100 µM. Also, the “SI (selectivity index), IC50 (L-02)/IC50 (Raji)” value in [4] is recorded as more than 2.8.

As to `Cc1cc(C)c(/C=C(\C#N)c2ccc(C(F)(F)F)cc2)c(C)c1` [Compound 1f2r], the IC50 (in the experiment with A549 lung cancer cell; in the experiment with HepG2 hepatoma cell; in experiment [1]; with AGS gastric cancer cell; in experiment [2] (setting [9]); in experiment [3]) was more than 100 µM each time. The IC50 in experiment [4] (MTT, 48 h, read-out: IC50 Raji) was more than 100 µM; with MCF-7 breast cancer cell, more than 100 µM; in experiment [5] it was more than 100 µM; in [6], more than 100 µM; in [7] it was more than 100 µM; in the experiment on L-02 normal liver cell it was more than 100 µM. In experiment [8], the half-maximal inhibitory concentration (IC50) was more than 100 µM.

As to `COc1ccc(/C=C(\C#N)c2ccc(C(F)(F)F)cc2)cc1` [Compound 1f2s], the IC50 was more than 100 µM in the experiment with A549 lung cancer cell; more than 100 µM in the experiment with HepG2 hepatoma cell; more than 100 µM in experiment [1]; more than 100 µM with AGS gastric cancer cell; more than 100 µM in [2] (setting [9]); 47.8 ± 0.7 µM in experiment [3]. Also, the IC50 is more than 100 µM in experiment [4] (MTT, 48 h, read-out: IC50 Raji); more than 100 µM in the experiment on MCF-7 breast cancer cell; more than 100 µM in experiment [5]; more than 100 µM in experiment [6]; more than 100 µM in experiment [7]; more than 100 µM in the experiment with L-02 normal liver cell. Also, in [8], the IC50 is more than 100 µM. Further, the “SI (selectivity index), IC50 (L-02)/IC50 (HCT-116)” value (“SI (selectivity index) … (HCT-116)” for short) in experiment [3] is recorded as more than 2.0.

`COc1cccc(/C=C(\C#N)c2ccc(C(F)(F)F)cc2)c1` [Compound 1f2t]: the IC50 was more than 100 µM in the experiment on A549 lung cancer cell; more than 100 µM in the experiment with HepG2 hepatoma cell; more than 100 µM in experiment [1]; 77.5 ± 3.9 µM with AGS gastric cancer cell; more than 100 µM in experiment [2] (setting [9]); 33.2 ± 0.2 µM in experiment [3]. In addition, the IC50 in experiment [4] (MTT, 48 h, read-out: IC50 Raji) is more than 100 µM; with MCF-7 breast cancer cell, more than 100 µM; in [5] it was more than 100 µM; in experiment [6], more than 100 µM; in [7] it was more than 100 µM; with L-02 normal liver cell it was more than 100 µM. Further, the IC50 in experiment [8] was more than 100 µM. For the same compound, in the experiment on AGS gastric cancer cell, the “SI (selectivity index), IC50 (L-02)/IC50 (AGS)” value is given as more than 1.2. Also, the “SI (selectivity index) … (HCT-116)” value in [3] was more than 3.0.

In the case of `COc1cc(/C=C(\C#N)c2ccc(C(F)(F)F)cc2)cc(OC)c1OC` [Compound 1f2u], the IC50 (in the experiment with A549 lung cancer cell; in the experiment with HepG2 hepatoma cell; in experiment [1]; with AGS gastric cancer cell; in [2] (setting [9]); in [3]) was more than 100 µM in each case. Further, the IC50 in experiment [4] (MTT, 48 h, read-out: IC50 Raji) was more than 100 µM; in the experiment on MCF-7 breast cancer cell it was more than 100 µM; in experiment [5] it was 92.5 ± 10.2 µM; in experiment [6], more than 100 µM; in experiment [7], more than 100 µM; with L-02 normal liver cell, more than 100 µM. In experiment [8], this compound returned an IC50 of more than 100 µM.

With `N#C/C(=C\c1ccc(Oc2ccccc2)cc1)c1ccc(C(F)(F)F)cc1` [Compound 1f2v], the IC50 (in the experiment with A549 lung cancer cell; in the experiment on HepG2 hepatoma cell; in experiment [1]; with AGS gastric cancer cell; in [2] (setting [9]); in experiment [3]) was more than 100 µM each time. Moreover, the IC50 in experiment [4] (MTT, 48 h, read-out: IC50 Raji) was more than 100 µM; in the experiment on MCF-7 breast cancer cell, more than 100 µM; in experiment [5], more than 100 µM; in [6] it was more than 100 µM; in experiment [7], more than 100 µM; in the experiment with L-02 normal liver cell, more than 100 µM. The compound also returned an IC50 in [8] of more than 100 µM.

In the case of `N#C/C(=C\c1ccc(/C=C(\C#N)c2ccc(C(F)(F)F)cc2)cc1)c1ccc(C(F)(F)F)cc1` [Compound 1f2w], the IC50 with A549 lung cancer cell was more than 100 µM; in the experiment with HepG2 hepatoma cell, more than 100 µM; in experiment [1], more than 100 µM; in the experiment on AGS gastric cancer cell, more than 100 µM; in experiment [2] (read-out: IC50 SU-DHL-10 cells), 0.022 µM; in experiment [3], more than 100 µM. For the same compound, the IC50 in experiment [4] (read-out: IC50 Raji cells) is 0.048 µM; in the experiment with MCF-7 breast cancer cell it was more than 100 µM; in experiment [5] it was more than 100 µM; in [6] it was more than 100 µM; in experiment [7], more than 100 µM; in the experiment with L-02 normal liver cell, more than 100 µM. For the same compound, in experiment [8], the IC50 was more than 100 µM. Also, in experiment [2], the “SI (selectivity index), IC50 (L-02)/IC50 (SU-DHL-10)” value is listed as more than 4545. Further, in experiment [4], the “SI (selectivity index), IC50 (L-02)/IC50 (Raji)” value was more than 2083.

Turning to `N#C/C(=C\c1ccco1)c1ccc(C(F)(F)F)cc1` [Compound 1f3a], the IC50 (in the experiment with A549 lung cancer cell; with HepG2 hepatoma cell; in experiment [1]; with AGS gastric cancer cell; in experiment [2] (setting [9]); in experiment [3]) was more than 100 µM each time. For the same compound, the half-inhibitory concentration (IC50) in experiment [4] (MTT, 48 h, read-out: IC50 Raji) was more than 100 µM; in the experiment on MCF-7 breast cancer cell it was more than 100 µM; in experiment [5], more than 100 µM; in experiment [6], more than 100 µM; in [7] it was more than 100 µM; with L-02 normal liver cell, more than 100 µM. For the same compound, the IC50 in experiment [8] was more than 100 µM.

Turning to `N#C/C(=C\c1cccs1)c1ccc(C(F)(F)F)cc1` [Compound 1f3b], the IC50 in the experiment on A549 lung cancer cell was more than 100 µM; in the experiment with HepG2 hepatoma cell, more than 100 µM; in [1] it was more than 100 µM; with AGS gastric cancer cell, 65 ± 17.9 µM; in experiment [2] (setting [9]), more than 100 µM; in experiment [3], more than 100 µM. In addition, the IC50 is more than 100 µM in experiment [4] (MTT, 48 h, read-out: IC50 Raji); more than 100 µM in the experiment with MCF-7 breast cancer cell; more than 100 µM in experiment [5]; more than 100 µM in experiment [6]; more than 100 µM in experiment [7]; more than 100 µM with L-02 normal liver cell. The compound further displayed an IC50 in experiment [8] of more than 100 µM. Further, in the experiment with AGS gastric cancer cell, the “SI (selectivity index), IC50 (L-02)/IC50 (AGS)” value was more than 1.5.

For `N#C/C(=C\c1ccccn1)c1ccc(C(F)(F)F)cc1` [Compound 1f3c], the IC50 is more than 100 µM in the experiment on A549 lung cancer cell; more than 100 µM in the experiment on HepG2 hepatoma cell; more than 100 µM in experiment [1]; more than 100 µM with AGS gastric cancer cell; more than 100 µM in [2] (setting [9]); 87.6 ± 9.1 µM in experiment [3]. Further, the IC50 in experiment [4] (MTT, 48 h, read-out: IC50 Raji) is more than 100 µM; in the experiment on MCF-7 breast cancer cell, more than 100 µM; in experiment [5] it was more than 100 µM; in experiment [6], more than 100 µM; in experiment [7], more than 100 µM; in the experiment on L-02 normal liver cell, more than 100 µM. The compound further displayed an IC50 in [8] of more than 100 µM. For the same compound, the “SI (selectivity index) … (HCT-116)” value in experiment [3] is reported as more than 1.1.

Take `N#C/C(=C\c1cccc2ccccc12)c1ccc(C(F)(F)F)cc1` [Compound 1f3d]: the IC50 (in the experiment on A549 lung cancer cell; in the experiment with HepG2 hepatoma cell; in experiment [1]; with AGS gastric cancer cell; in experiment [2] (setting [9]); in experiment [3]) was more than 100 µM throughout. In addition, the IC50 was more than 100 µM in [4] (MTT, 48 h, read-out: IC50 Raji); more than 100 µM with MCF-7 breast cancer cell; more than 100 µM in experiment [5]; more than 100 µM in [6]; more than 100 µM in experiment [7]; more than 100 µM in the experiment with L-02 normal liver cell. Further, the IC50 in experiment [8] was more than 100 µM.
